Patent US11231416B2, “Virus-like particle (VLP) based small molecule-protein interaction trap” (VIB VZW, priority 2015, dated 2022)

Experiments:
SLC17A1 = target: T1, SLC17A1 (Homo sapiens, UniProt Q14916); experiment: Viral trapping in VLPs, MS analysis; type: binding; conditions: all proteins (incl. low confidence identifications)
T1 construct: endogenous in cells; host or cells: HEK293T

CNPY2 = target: T2, CNPY2 (Homo sapiens, UniProt Q9Y2B0); experiment: Viral trapping in VLPs, MS analysis; type: binding; conditions: all proteins (incl. low confidence identifications)
T2 construct: endogenous in cells; host or cells: HEK293T

LOC524129 = experiment: Viral trapping in VLPs, MS analysis; type: binding; conditions: all proteins (incl. low confidence identifications)
SARM1 = target: T3, SARM1 (Homo sapiens, UniProt Q6SZW1); experiment: Viral trapping in VLPs, MS analysis; type: binding
T3 construct: endogenous in cells; host or cells: HEK293T

AKT3 = target: T4, AKT3 (Homo sapiens, UniProt Q9Y243); experiment: Viral trapping in VLPs, MS analysis; type: binding; conditions: all proteins (incl. low confidence identifications)
T4 construct: endogenous in cells; host or cells: HEK293T

CTU1 = target: T5, CTU1 (Homo sapiens, UniProt Q7Z7A3); experiment: Viral trapping in VLPs, MS analysis; type: binding
T5 construct: endogenous in cells; host or cells: HEK293T

LAMTOR5 = target: T6, LAMTOR5 (Homo sapiens, UniProt O43504); experiment: Viral trapping in VLPs, MS analysis; type: binding; conditions: all proteins (incl. low confidence identifications)
T6 construct: endogenous in cells; host or cells: HEK293T

PDIA4 = target: T7, PDIA4 (Homo sapiens, UniProt P13667); experiment: Viral trapping in VLPs, MS analysis; type: binding
T7 construct: endogenous in cells; host or cells: HEK293T

RAB4A = target: T8, RAB4A (Homo sapiens, UniProt P20338); experiment: Viral trapping in VLPs, MS analysis; type: binding; conditions: all proteins (incl. low confidence identifications)
T8 construct: endogenous in cells; host or cells: HEK293T

FHL1 = target: T9, FHL1 (Homo sapiens, UniProt Q13642); experiment: Viral trapping in VLPs, MS analysis; type: binding; conditions: all proteins (incl. low confidence identifications)
T9 construct: endogenous in cells; host or cells: HEK293T

KIAA0319L = target: T10, KIAA0319L (Homo sapiens, UniProt Q8IZA0); experiment: Viral trapping in VLPs, MS analysis; type: binding
T10 construct: endogenous in cells; host or cells: HEK293T

SBDS = target: T11, SBDS (Homo sapiens, UniProt Q9Y3A5); experiment: Viral trapping in VLPs, MS analysis; type: binding; conditions: all proteins (incl. low confidence identifications)
T11 construct: endogenous in cells; host or cells: HEK293T

RBP4 = experiment: Viral trapping in VLPs, MS analysis; type: binding, human; conditions: all proteins (incl. low confidence identifications)
DDTL = experiment: Viral trapping in VLPs, MS analysis; type: binding, human; conditions: all proteins (incl. low confidence identifications)
HMGCR = target: T12, HMGCR (Homo sapiens, UniProt P04035); experiment: Viral trapping in VLPs, MS analysis; type: binding
T12 construct: endogenous in cells; host or cells: HEK293T

VPS37D = target: T13, VPS37D (Homo sapiens, UniProt Q86XT2); experiment: Viral trapping in VLPs, MS analysis; type: binding; conditions: all proteins (incl. low confidence identifications)
T13 construct: endogenous in cells; host or cells: HEK293T

TMED9 = target: T14, TMED9 (Homo sapiens, UniProt Q9BVK6); experiment: Viral trapping in VLPs, MS analysis; type: binding; conditions: all proteins (incl. low confidence identifications)
T14 construct: endogenous in cells; host or cells: HEK293T

GALNT1 = target: T15, GALNT1 (Homo sapiens, UniProt Q10472); experiment: Viral trapping in VLPs, MS analysis; type: binding; conditions: all proteins (incl. low confidence identifications)
T15 construct: endogenous in cells; host or cells: HEK293T

ATP6V0C = target: T16, ATP6V0C (Homo sapiens, UniProt P27449); experiment: Viral trapping in VLPs, MS analysis; type: binding; conditions: all proteins (incl. low confidence identifications)
T16 construct: endogenous in cells; host or cells: HEK293T

SLC46A1 = target: T17, SLC46A1 (Homo sapiens, UniProt Q96NT5); experiment: Viral trapping in VLPs, MS analysis; type: binding; conditions: all proteins (incl. low confidence identifications)
T17 construct: endogenous in cells; host or cells: HEK293T

TMED5 = target: T18, TMED5 (Homo sapiens, UniProt Q9Y3A6); experiment: Viral trapping in VLPs, MS analysis; type: binding; conditions: all proteins (incl. low confidence identifications)
T18 construct: endogenous in cells; host or cells: HEK293T

MOXD1 = target: T19, MOXD1 (Homo sapiens, UniProt Q6UVY6); experiment: Viral trapping in VLPs, MS analysis; type: binding; conditions: all proteins (incl. low confidence identifications)
T19 construct: endogenous in cells; host or cells: HEK293T

PYGM = experiment: Viral trapping in VLPs, MS analysis; type: binding, human; conditions: all proteins (incl. low confidence identifications)
LOC512271 = experiment: Viral trapping in VLPs, MS analysis; type: binding; conditions: all proteins (incl. low confidence identifications)
SH3GL2 = target: T20, SH3GL2 (Homo sapiens, UniProt Q99962); experiment: Viral trapping in VLPs, MS analysis; type: binding; conditions: all proteins (incl. low confidence identifications)
T20 construct: endogenous in cells; host or cells: HEK293T

GINS1 = target: T21, GINS1 (Homo sapiens, UniProt Q14691); experiment: Viral trapping in VLPs, MS analysis; type: binding; conditions: all proteins (incl. low confidence identifications)
T21 construct: endogenous in cells; host or cells: HEK293T

LNPEP = target: T22, LNPEP (Homo sapiens, UniProt Q9UIQ6); experiment: Viral trapping in VLPs, MS analysis; type: binding; conditions: all proteins (incl. low confidence identifications)
T22 construct: endogenous in cells; host or cells: HEK293T

VAMP4 = target: T23, VAMP4 (Homo sapiens, UniProt O75379); experiment: Viral trapping in VLPs, MS analysis; type: binding; conditions: all proteins (incl. low confidence identifications)
T23 construct: endogenous in cells; host or cells: HEK293T

DBI = target: T24, DBI (Homo sapiens, UniProt P07108); experiment: Viral trapping in VLPs, MS analysis; type: binding; conditions: all proteins (incl. low confidence identifications)
T24 construct: endogenous in cells; host or cells: HEK293T

PRKCSH = target: T25, PRKCSH (Homo sapiens, UniProt P14314); experiment: Viral trapping in VLPs, MS analysis; type: binding; conditions: all proteins (incl. low confidence identifications)
T25 construct: endogenous in cells; host or cells: HEK293T

KRT6B = target: T26, KRT6B (Homo sapiens, UniProt P04259); experiment: Viral trapping in VLPs, MS analysis; type: binding
T26 construct: endogenous in cells; host or cells: HEK293T

FABP1 = target: T27, FABP1 (Homo sapiens, UniProt P07148); experiment: Viral trapping in VLPs, MS analysis; type: binding; conditions: all proteins (incl. low confidence identifications)
T27 construct: endogenous in cells; host or cells: HEK293T

EIF1AY = experiment: Viral trapping in VLPs, MS analysis; type: binding, human; conditions: all proteins (incl. low confidence identifications)
UBIAD1 = target: T28, UBIAD1 (Homo sapiens, UniProt Q9Y5Z9); experiment: Viral trapping in VLPs, MS analysis; type: binding
T28 construct: endogenous in cells; host or cells: HEK293T
Experimental: (§1) To screen for simvastatin binders, cells were transfected with the GAG-eDHFR construct and then treated immediately after transfection with the MTX-PEG6-simvastatin molecule. A total of five biological repeats were performed together with four DMSO control experiments. The list of candidate interactors was obtained after removal of all proteins (including proteins identified with a single peptide) that were found in 19 control samples, the four DMSO samples and the other small molecule samples (e.g., the protein list of the five simvastatin samples was challenged against a total of 29 samples). The control samples are a number of successful Virotrap experiments using unrelated proteins to generate a list of proteins that can be considered background proteins, and that can be subtracted from the protein list obtained for the actual samples.
(§2) For each small molecule condition, two lists of proteins (annotated by their gene name) were reported. The left part of the tables (“All proteins”) contains all unique protein identifications (thus also proteins identified with a single peptide) obtained after removal of the background proteins. The right part of the tables (“Proteins identified with >1 peptide”) contains only the proteins identified with high confidence (at least two modified peptide identifications for each protein). Some recurrent proteins that were identified in multiple experiments with a single peptide are removed from this list (e.g., PYGM identified with low confidence in two repeat experiments).

SQLE = target: T29, SQLE (Homo sapiens, UniProt Q14534); experiment: Viral trapping in VLPs, MS analysis; type: binding
T29 construct: endogenous in cells; host or cells: HEK293T
Experimental: as §1, §2

HSD17B4 = target: T30, HSD17B4 (Homo sapiens, UniProt P51659); experiment: Binary MASPIT assay; type: cell-based; conditions: binary MASPIT assay
T30 construct: endogenous in cells; host or cells: HEK293T
T30 sequence (P51659 1-736): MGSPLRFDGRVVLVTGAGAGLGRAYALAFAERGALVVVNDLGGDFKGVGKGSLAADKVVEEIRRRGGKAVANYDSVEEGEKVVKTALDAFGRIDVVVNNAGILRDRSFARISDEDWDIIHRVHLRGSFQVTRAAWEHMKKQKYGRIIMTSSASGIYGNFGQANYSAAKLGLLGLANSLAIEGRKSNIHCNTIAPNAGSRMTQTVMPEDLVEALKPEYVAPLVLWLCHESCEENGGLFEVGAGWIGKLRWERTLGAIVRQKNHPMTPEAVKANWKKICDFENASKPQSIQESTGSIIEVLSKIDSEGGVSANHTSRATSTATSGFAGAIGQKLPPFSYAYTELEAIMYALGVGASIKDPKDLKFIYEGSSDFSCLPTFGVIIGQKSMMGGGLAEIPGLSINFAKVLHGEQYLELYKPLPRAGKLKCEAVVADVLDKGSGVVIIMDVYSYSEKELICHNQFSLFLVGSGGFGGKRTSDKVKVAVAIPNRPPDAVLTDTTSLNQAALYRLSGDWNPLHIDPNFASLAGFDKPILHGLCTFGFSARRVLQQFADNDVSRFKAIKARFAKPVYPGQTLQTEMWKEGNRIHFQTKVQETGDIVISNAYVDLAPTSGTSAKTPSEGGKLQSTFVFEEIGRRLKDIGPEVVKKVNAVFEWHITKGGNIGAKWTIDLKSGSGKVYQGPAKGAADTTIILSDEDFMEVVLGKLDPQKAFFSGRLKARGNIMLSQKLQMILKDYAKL
Experimental: The binding of HSD17B4 to tamoxifen was further confirmed using the MASPIT technology. The binary MASPIT assay was essentially performed as described before (Risseeuw et al., 2013). Briefly, HEK293T cells were seeded in black tissue-culture treated 96-well plates at 10.000 cells/well in 100 μl culture medium (DMEM supplemented with 10% fetal calf serum), and grown at 37° C., 8% CO2. Twenty-four hours later cells were transfected with a combination of the pCLG-eDHFR plasmid (Risseeuw et al., 2013), the pMG1-HSD17B4 construct and the pXP2d2-rPAP1-luciferase reporter (Caligiuri et al., 2006). The pMG1-HSD17B4 construct was generated by Gateway transfer of the full size HSD17B4 ORF, obtained as an entry clone in the hORFeome collection, into the Gateway compatible pMG1 prey destination vector as described earlier (Lievens et al., 2009). Twenty-four hours after transfection, cells were either left unstimulated or treated with 100 ng/ml leptin, with or without addition of MTX-PEG6-tamoxifen. Another 24 hours later, luciferase activity was assayed using the Luciferase Assay System kit (Promega).

[1] = all proteins (incl. low confidence identifications)
[2] = proteins identified with >1 peptide (high confidence)

T26 sequence (P04259 whole entry): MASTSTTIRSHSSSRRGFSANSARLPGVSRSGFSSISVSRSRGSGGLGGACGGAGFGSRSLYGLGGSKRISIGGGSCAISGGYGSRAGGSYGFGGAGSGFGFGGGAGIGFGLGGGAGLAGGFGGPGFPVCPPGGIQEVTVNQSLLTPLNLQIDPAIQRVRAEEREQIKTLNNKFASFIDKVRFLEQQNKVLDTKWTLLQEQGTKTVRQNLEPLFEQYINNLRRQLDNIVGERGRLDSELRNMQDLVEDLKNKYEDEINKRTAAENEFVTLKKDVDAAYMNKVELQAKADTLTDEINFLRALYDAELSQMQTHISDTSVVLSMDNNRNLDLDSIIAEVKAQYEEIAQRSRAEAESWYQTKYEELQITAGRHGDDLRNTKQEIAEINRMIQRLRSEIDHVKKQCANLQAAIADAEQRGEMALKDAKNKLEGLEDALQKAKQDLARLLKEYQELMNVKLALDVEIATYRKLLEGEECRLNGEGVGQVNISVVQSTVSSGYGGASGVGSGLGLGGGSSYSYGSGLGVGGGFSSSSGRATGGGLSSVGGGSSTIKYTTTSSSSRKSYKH
T12 sequence (P04035 whole entry): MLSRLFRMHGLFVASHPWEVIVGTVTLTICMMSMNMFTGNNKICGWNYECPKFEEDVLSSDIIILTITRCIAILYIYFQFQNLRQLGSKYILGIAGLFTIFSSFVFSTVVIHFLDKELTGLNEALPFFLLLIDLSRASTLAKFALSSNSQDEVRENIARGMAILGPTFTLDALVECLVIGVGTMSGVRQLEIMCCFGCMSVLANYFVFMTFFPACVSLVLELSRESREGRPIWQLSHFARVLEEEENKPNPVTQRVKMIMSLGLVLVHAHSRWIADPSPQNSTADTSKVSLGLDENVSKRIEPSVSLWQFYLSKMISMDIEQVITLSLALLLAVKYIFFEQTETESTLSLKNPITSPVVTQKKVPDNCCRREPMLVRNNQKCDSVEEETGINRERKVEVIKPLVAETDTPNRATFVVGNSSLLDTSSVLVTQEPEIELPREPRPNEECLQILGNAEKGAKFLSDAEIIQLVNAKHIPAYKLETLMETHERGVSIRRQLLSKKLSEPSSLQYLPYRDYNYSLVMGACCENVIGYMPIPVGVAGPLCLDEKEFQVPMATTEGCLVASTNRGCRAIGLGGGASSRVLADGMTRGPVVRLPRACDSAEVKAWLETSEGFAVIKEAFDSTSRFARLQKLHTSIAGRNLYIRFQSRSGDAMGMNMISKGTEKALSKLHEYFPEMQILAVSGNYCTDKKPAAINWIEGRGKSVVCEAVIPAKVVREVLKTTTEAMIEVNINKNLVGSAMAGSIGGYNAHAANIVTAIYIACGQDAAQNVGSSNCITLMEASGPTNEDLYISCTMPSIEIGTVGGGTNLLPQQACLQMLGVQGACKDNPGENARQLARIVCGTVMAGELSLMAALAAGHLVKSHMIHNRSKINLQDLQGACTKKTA
T29 sequence (Q14534 whole entry): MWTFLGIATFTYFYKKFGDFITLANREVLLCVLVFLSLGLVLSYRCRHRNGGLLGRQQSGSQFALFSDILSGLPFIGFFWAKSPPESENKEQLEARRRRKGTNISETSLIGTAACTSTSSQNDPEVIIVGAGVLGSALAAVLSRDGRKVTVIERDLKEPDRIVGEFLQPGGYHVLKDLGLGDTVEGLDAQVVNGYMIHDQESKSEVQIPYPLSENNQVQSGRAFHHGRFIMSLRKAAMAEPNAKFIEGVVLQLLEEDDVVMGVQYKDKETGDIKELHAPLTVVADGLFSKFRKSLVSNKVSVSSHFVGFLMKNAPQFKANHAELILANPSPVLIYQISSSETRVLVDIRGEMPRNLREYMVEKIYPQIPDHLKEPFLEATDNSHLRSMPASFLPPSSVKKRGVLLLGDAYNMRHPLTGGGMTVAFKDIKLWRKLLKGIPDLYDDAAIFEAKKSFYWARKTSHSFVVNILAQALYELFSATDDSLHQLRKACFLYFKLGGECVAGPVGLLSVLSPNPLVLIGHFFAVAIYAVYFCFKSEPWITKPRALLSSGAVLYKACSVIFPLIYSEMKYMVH
T5 sequence (Q7Z7A3 whole entry): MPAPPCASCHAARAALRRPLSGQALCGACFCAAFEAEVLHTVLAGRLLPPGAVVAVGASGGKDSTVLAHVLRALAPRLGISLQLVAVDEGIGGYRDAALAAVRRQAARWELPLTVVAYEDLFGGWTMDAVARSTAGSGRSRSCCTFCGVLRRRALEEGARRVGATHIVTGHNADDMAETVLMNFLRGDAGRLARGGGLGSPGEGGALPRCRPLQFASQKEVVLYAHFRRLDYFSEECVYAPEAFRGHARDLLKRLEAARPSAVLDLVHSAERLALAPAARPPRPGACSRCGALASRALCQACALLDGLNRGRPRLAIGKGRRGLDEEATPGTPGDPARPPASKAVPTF
T3 sequence (Q6SZW1 28-724): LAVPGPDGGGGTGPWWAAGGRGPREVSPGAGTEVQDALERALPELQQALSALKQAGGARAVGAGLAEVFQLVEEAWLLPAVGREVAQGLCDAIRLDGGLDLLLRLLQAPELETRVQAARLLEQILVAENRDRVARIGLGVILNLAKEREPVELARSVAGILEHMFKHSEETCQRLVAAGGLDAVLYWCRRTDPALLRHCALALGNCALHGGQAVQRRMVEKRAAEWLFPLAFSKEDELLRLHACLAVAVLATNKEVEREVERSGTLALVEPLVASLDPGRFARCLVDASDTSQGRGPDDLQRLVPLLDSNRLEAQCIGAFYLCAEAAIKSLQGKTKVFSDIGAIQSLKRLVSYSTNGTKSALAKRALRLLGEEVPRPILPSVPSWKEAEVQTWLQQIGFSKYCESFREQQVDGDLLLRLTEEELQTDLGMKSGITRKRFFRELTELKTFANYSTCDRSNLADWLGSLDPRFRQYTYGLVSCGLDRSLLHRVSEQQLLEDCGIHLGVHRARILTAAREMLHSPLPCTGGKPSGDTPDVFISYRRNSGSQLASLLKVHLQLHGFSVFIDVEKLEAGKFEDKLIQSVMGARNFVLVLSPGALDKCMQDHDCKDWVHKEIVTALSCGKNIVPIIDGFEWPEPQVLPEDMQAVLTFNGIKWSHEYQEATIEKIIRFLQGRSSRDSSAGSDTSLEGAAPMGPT
T28 sequence (Q9Y5Z9 whole entry): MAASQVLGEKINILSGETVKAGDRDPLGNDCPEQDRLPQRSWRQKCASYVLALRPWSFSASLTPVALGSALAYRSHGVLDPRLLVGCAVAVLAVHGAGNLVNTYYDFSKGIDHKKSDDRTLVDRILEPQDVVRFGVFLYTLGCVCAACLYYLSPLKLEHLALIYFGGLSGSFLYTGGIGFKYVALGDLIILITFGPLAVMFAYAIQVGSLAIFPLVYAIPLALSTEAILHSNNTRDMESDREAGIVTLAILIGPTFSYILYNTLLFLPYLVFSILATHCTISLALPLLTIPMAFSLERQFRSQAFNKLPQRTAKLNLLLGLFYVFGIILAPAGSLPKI
T10 sequence (Q8IZA0 whole entry): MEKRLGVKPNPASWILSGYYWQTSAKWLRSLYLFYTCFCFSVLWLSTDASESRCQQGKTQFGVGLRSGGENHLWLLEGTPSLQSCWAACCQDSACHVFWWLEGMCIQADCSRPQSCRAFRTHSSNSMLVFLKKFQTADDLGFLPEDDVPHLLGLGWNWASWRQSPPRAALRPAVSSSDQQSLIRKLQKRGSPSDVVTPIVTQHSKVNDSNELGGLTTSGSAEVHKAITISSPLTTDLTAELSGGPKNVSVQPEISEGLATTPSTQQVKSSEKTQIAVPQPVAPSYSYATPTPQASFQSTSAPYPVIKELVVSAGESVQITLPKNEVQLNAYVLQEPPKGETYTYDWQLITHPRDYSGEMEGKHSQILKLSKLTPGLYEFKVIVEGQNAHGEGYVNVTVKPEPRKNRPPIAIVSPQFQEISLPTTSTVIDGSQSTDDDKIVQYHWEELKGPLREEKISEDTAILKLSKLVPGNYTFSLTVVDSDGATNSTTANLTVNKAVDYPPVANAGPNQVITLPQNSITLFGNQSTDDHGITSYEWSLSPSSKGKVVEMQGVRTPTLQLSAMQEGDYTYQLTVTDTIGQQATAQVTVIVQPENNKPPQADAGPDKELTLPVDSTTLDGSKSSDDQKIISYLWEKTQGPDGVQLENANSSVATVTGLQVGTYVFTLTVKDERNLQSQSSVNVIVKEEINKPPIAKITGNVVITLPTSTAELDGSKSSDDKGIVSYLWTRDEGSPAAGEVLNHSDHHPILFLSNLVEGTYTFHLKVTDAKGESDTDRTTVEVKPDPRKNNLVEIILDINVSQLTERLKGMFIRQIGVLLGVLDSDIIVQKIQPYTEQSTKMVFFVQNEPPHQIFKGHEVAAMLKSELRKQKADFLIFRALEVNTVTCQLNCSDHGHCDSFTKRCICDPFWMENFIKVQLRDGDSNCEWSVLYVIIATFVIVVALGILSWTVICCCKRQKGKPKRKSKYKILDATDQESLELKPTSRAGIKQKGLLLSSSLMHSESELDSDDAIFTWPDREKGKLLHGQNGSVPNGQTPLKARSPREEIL
T23 sequence (O75379 whole entry): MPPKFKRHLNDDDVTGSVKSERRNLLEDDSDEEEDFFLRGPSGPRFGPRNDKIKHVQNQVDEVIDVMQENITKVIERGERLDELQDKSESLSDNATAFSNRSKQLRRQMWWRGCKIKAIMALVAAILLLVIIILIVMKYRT
T14 sequence (Q9BVK6 38-235): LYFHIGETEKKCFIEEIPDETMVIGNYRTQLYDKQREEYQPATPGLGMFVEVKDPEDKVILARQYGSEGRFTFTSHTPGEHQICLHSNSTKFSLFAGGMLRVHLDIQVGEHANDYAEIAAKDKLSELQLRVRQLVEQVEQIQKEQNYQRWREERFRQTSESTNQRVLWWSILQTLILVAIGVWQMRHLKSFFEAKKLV
T2 sequence (Q9Y2B0 21-182): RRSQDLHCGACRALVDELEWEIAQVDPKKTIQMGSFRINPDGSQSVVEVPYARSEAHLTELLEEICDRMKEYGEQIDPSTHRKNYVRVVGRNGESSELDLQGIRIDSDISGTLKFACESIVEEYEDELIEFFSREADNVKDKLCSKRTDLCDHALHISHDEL

Structure (SMILES): CC1C=C2C=CC(C)C(CCC3CC(O)CC(=O)O3)C2C(OC(=O)C(C)(C)Cc2cn(CCOCCOCCOCCOCCOCCNC(=O)CCC(NC(=O)c3ccc(N(C)Cc4cnc5nc(N)nc(N)c5n4)cc3)C(=O)O)nn2)C1 (centres unmarked) [MTX-PEG6-simvastatin]
- Recurrence (x/5) (SLC17A1): 1 x/5
- Recurrence (x/5) (CNPY2): 1 x/5
- Recurrence (x/5) (LOC524129): 1 x/5
- Recurrence (x/5) (SARM1; [1]): 3 x/5
- Recurrence (x/5) (SARM1; [2]): 3 x/5
- Recurrence (x/5) (AKT3): 1 x/5
- Recurrence (x/5) (CTU1; [1]): 1 x/5
- Recurrence (x/5) (CTU1; [2]): 1 x/5
- Recurrence (x/5) (LAMTOR5): 1 x/5
- Recurrence (x/5) (PDIA4; [1]): 1 x/5
- Recurrence (x/5) (PDIA4; [2]): 1 x/5
- Recurrence (x/5) (RAB4A): 1 x/5
- Recurrence (x/5) (FHL1): 1 x/5
- Recurrence (x/5) (KIAA0319L; [1]): 1 x/5
- Recurrence (x/5) (KIAA0319L; [2]): 1 x/5
- Recurrence (x/5) (SBDS): 1 x/5
- Recurrence (x/5) (RBP4): 1 x/5
- Recurrence (x/5) (DDTL): 1 x/5
- Recurrence (x/5) (HMGCR; [1]): 5 x/5
- Recurrence (x/5) (HMGCR; [2]): 5 x/5
- Recurrence (x/5) (VPS37D): 1 x/5
- Recurrence (x/5) (TMED9): 1 x/5
- Recurrence (x/5) (GALNT1): 1 x/5
- Recurrence (x/5) (ATP6V0C): 1 x/5
- Recurrence (x/5) (SLC46A1): 1 x/5
- Recurrence (x/5) (TMED5): 1 x/5
- Recurrence (x/5) (MOXD1): 1 x/5
- Recurrence (x/5) (PYGM): 2 x/5
- Recurrence (x/5) (LOC512271): 1 x/5
- Recurrence (x/5) (SH3GL2): 1 x/5
- Recurrence (x/5) (GINS1): 1 x/5
- Recurrence (x/5) (LNPEP): 1 x/5
- Recurrence (x/5) (VAMP4): 1 x/5
- Recurrence (x/5) (DBI): 1 x/5
- Recurrence (x/5) (PRKCSH): 1 x/5
- Recurrence (x/5) (KRT6B; [1]): 1 x/5
- Recurrence (x/5) (KRT6B; [2]): 1 x/5
- Recurrence (x/5) (FABP1): 1 x/5
- Recurrence (x/5) (EIF1AY): 1 x/5
- Recurrence (x/5) (UBIAD1; [1]): 1 x/5
- Recurrence (x/5) (UBIAD1; [2]): 1 x/5
- Recurrence (x/5) (SQLE; [1]): 4 x/5
- Recurrence (x/5) (SQLE; [2]): 3 x/5

Structure (SMILES): CC/C(=C(\c1ccccc1)c1ccc(OCCN(C)C)cc1)c1ccccc1 [tamoxifen, reference compound]
- interaction between tamoxifen and HSD17B4 (HSD17B4): confirmed
